Data published in patent US8741806B2, “Herbicides” (Syngenta Limited, priority 2009, dated 2014).

Experiments:
Format in all cases: in vivo
Avena fatua (AVEFA) [1] = assay: Example B pre-emergence herbicidal activity, glasshouse pot test; conditions: 312 h, rate 250 g/ha, evaluated after 13 days, scale 0-100, read-out: Pre-emergence activity AVEFA (100=total damage to plant; 0=no damage to plant)
Protocol: (§1) Seeds of a variety of test species were sown in standard soil in pots. After cultivation for one day (pre-emergence) or after 8 days cultivation (post-emergence) under controlled conditions in a glasshouse (at 24/16° C., day/night; 14 hours light; 65% humidity), the plants were sprayed with an aqueous spray solution derived from the formulation of the technical active ingredient of formula I in acetone/water (50:50) solution containing 0.5% Tween 20 (polyoxyethelyene sorbitan monolaurate, CAS RN 9005-64-5). The test plants were then grown in a glasshouse under controlled conditions in a glasshouse (at 24/16° C., day/night; 14 hours light; 65% humidity) and watered twice daily. After 13 days for pre and post-emergence, the test was evaluated (100=total damage to plant; 0=no damage to plant). Setaria faberi (SETFA), Lolium perenne (LOLPE), Alopecurus myosuroides (ALOMY), Echinochloa crus-galli (ECHCG), and Avena fatua (AVEFA). Pre-Emergence Activity

[2] = system: Alopecurus myosuroides (ALOMY); assay: as above; conditions: 312 h, rate 250 g/ha, evaluated after 13 days, scale 0-100, read-out: Pre-emergence activity ALOMY (100=total damage to plant; 0=no damage to plant)
Protocol: as §1

Lolium perenne (LOLPE) [3] = assay: as above; conditions: 312 h, rate 250 g/ha, evaluated after 13 days, scale 0-100, read-out: Pre-emergence activity LOLPE (100=total damage to plant; 0=no damage to plant)
Protocol: as §1

[4] = system: Echinochloa crus-galli (ECHCG); assay: as above; conditions: 312 h, rate 250 g/ha, evaluated after 13 days, scale 0-100, read-out: Pre-emergence activity ECHCG (100=total damage to plant; 0=no damage to plant)
Protocol: as §1

Avena fatua (AVEFA) [5] = assay: Example B post-emergence herbicidal activity, glasshouse pot test; conditions: 312 h, rate 250 g/ha, evaluated after 13 days, scale 0-100, read-out: Post-emergence activity AVEFA (100=total damage to plant; 0=no damage to plant)
Protocol: as §1, with “Post-Emergence” for “Pre-Emergence”

[6] = system: Alopecurus myosuroides (ALOMY); assay: as above; conditions: 312 h, rate 250 g/ha, evaluated after 13 days, scale 0-100, read-out: Post-emergence activity ALOMY (100=total damage to plant; 0=no damage to plant)
Protocol: as §1, with “Post-Emergence” for “Pre-Emergence”

Lolium perenne (LOLPE) [7] = assay: as above; conditions: 312 h, rate 250 g/ha, evaluated after 13 days, scale 0-100, read-out: Post-emergence activity LOLPE (100=total damage to plant; 0=no damage to plant)
Protocol: as §1, with “Post-Emergence” for “Pre-Emergence”

[8] = system: Echinochloa crus-galli (ECHCG); assay: as above; conditions: 312 h, rate 250 g/ha, evaluated after 13 days, scale 0-100, read-out: Post-emergence activity ECHCG (100=total damage to plant; 0=no damage to plant)
Protocol: as §1, with “Post-Emergence” for “Pre-Emergence”

Compound	pest or weed control at 250 g/ha (Avena fatua (AVEFA) [1])	pest or weed control at 250 g/ha [2]	pest or weed control at 250 g/ha (Lolium perenne (LOLPE) [3])	pest or weed control at 250 g/ha [4]	pest or weed control at 250 g/ha (Avena fatua (AVEFA) [5])	pest or weed control at 250 g/ha [6]	pest or weed control at 250 g/ha (Lolium perenne (LOLPE) [7])	pest or weed control at 250 g/ha [8]
CCc1ccc(-c2ccc(Cl)cc2F)cc1C1=C(O)C(C)(C)CC(C)(C)C1=O [Compound T60]	30%	0%	80%	90%	30%	10%	80%	100%
CCc1ccc(-c2ccc(Cl)s2)cc1C1=C(O)CC(C)(C)CC1=O [Compound T26]	0%	20%	100%	100%	0%	30%	70%	80%
CCc1ccc(-c2ccc(Cl)nc2)cc1C1=C(O)CC(C)(C)CC1=O [Compound T27]	0%	0%	0%	0%	70%	90%	80%	100%
CCc1ccc(-c2ccc(Cl)cc2F)cc1C1=C(O)CC(C)(C)CC1=O [Compound T32]	30%	0%	80%	80%	70%	40%	100%	100%
CCc1ccc(-c2ccc(Cl)cc2C)cc1C1=C(O)CCCC1=O [Compound T48]	20%	0%	80%	90%	10%	20%	50%	100%
CCc1ccc(-c2ccc(Cl)c(C(F)(F)F)c2F)cc1C1=C(O)CCCC1=O [Compound T53]	0%	20%	40%	40%	80%	40%	100%	100%
CCc1ccc(-c2ccc(Cl)c(F)c2)cc1C1=C(O)CC(C)(C)CC1=O [Compound T33]	20%	0%	90%	90%	80%	100%	100%	100%
CCc1ccc(-c2ccc(Cl)c(OC)c2)cc1C1=C(O)CCCC1=O [Compound T50]	40%	20%	0%	90%	80%	70%	80%	100%
CCc1ccc(-c2c(F)cc(Cl)cc2F)cc1C1=C(O)CC(C)(C)CC1=O [Compound T28]	40%	20%	90%	100%	50%	30%	100%	100%
CCc1ccc(-c2ccc(Cl)c(C(F)(F)F)c2)cc1C1=C(O)C(C)(C)CCC1=O [Compound T8]	20%	0%	90%	100%	30%	40%	80%	100%
CCc1ccc(-c2ccc(Cl)cc2C)cc1C1=C(O)C(C)(C)CCC1=O [Compound T4, 2-(4′-chloro-4-ethyl-2′-methylbiphen-3-yl)-4,4-dimethylcyclohexane-1,3-dione]	0%	20%	40%	90%	0%	0%	50%	100%
CCc1ccc(-c2cc(Cl)c(Cl)cc2Cl)cc1C1=C(O)CCCC1=O [Compound T46]	20%	0%	70%	90%	20%	0%	70%	100%
CCc1ccc(-c2ccc(Cl)c(Cl)c2)cc1C1=C(O)CCCC1=O [Compound T49]	60%	20%	100%	100%	80%	50%	90%	100%
